These are literature values, as cited in patent US20050114109A1, “STRUCTURE OF INTEGRIN ALPHA V-beta 3 EXTRACELLULAR DOMAIN COMPLEXED WITH LIGAND” (priority 2002, published 2005).

pIC50: −log10 of the molar value.

This data set has as its system native or extracellular αVβ3. The following applies: physiologic ligands, from Mehta et al. 1998 and Dechantsreiter et al. 1999, read-out: IC50, competes with binding of physiologic ligands to αVβ3.

Chain of native or extracellular αVβ3 (P06756 31-889 limits assumed): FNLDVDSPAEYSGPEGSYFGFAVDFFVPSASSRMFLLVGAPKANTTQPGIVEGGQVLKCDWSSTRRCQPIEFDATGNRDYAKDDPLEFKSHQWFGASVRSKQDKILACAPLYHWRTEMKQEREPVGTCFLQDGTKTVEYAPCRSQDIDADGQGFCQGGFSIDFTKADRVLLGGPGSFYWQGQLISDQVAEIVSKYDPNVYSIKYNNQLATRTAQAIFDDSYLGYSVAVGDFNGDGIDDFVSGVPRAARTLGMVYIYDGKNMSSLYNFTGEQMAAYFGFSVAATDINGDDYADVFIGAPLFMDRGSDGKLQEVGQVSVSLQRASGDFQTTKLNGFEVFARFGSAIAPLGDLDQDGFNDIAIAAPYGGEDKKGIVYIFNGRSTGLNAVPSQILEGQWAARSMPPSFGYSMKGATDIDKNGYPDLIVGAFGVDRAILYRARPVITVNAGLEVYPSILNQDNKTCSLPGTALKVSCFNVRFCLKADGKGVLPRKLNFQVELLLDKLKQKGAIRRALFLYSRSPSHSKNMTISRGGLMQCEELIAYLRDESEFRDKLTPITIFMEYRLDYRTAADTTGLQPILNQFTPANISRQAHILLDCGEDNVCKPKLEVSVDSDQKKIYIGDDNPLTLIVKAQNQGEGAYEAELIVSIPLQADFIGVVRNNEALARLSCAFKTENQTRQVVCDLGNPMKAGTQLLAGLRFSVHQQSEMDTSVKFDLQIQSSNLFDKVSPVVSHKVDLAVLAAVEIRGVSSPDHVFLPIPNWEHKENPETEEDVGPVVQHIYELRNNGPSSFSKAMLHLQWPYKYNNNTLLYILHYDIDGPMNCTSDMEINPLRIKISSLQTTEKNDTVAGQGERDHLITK
Chain of native or extracellular αVβ3 (P06756 891-987 limits assumed): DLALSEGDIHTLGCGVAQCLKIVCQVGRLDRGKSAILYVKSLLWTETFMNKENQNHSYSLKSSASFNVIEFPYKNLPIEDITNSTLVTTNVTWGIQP
Chain of native or extracellular αVβ3 (P05106 27-625 limits assumed, further chain): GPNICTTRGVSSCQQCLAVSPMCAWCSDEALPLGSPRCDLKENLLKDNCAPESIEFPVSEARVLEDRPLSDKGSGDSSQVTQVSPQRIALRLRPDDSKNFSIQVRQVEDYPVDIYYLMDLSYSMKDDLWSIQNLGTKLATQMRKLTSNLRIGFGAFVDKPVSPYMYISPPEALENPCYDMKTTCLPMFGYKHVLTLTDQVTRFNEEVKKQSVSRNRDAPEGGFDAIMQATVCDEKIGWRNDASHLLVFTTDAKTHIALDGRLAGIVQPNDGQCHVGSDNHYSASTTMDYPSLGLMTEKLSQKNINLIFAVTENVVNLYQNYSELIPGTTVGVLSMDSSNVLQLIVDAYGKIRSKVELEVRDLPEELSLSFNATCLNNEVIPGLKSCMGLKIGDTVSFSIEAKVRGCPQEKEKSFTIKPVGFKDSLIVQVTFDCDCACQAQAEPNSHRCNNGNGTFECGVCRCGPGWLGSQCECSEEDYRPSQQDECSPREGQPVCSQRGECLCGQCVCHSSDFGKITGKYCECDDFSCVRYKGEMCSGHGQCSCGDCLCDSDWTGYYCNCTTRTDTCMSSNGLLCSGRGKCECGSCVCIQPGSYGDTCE

A word on the pIC50: it is the IC50 on a negative log10 scale, so that one unit is a factor of ten. In the case of “Arg-Gly-Asp-(D-Phe)-(N-methyl-Val) [Cyclo(RGDf-N-Me-V), cyclic pentapeptide ligand of αVβ3, in clinical trials as an anti-angiogenic therapeutic]”, the pIC50 is 8.52 to 9.30.
